Key:
[1] = tested on: α-tubulin (lysine K40) acetylation in ST14A cells; experiment: α-Tubulin acetylation in differentiated ST14A cells; format: cell-based, rat; conditions: mutant HD and wild type ST14A cells, 6 hours
Method: Compound bioactivity was tested in the rat embryonic striatal cell lines ST14A, which stably express either a mutant expanded repeat (128Q) or wild type (26Q) 546 amino acid huntingtin (HTT) fragment (a generous gift of E. Cattaneo) (Ehrlich et al., 2001) ST14A cells were propagated at 33° C. in the presence of serum. To induce neuronal differentiation, cells were serum deprived and cultured at 37° C. in the presence of N2 supplement. […]
This increased α-tubulin acetylation in compound-treated cells was consistent with the activity of MIND4 as a SIRT2 inhibitor.

[2] = tested on: primary human monocytes; experiment: LDH cell death assay in primary human monocytes; format: cell-based; conditions: any concentration
Method: (§1) Blood samples were obtained from control subjects and genetically-diagnosed, symptomatic HD patients. Patients were classed as having early or moderate-stage disease using the total functional capacity (TFC) scale (13-7, early; 6-3, moderate) [Marder, 2000]. Subjects with inflammatory or infective conditions were excluded. Cells were isolated from whole blood, as previously described [Björkqvist, 2008]. In brief, 50 ml whole blood was collected in heparin (CP Pharmaceuticals) and leukocytes were isolated by density gradient centrifugation. Monocytes were sorted via magnetic cell separation columns using anti-CD14 microbeads (Miltenyi Biotec). Monocytes were seeded at 1×10^5 cells per well in 96-well PRIMARIA™ tissue culture plates (BD Falcon) with R10 media (RPMI culture medium supplemented with 10% FCS, 2 mM L-glutamine, 50 U/ml penicillin and […] streptomycin (Invitrogen)). […] Supernatants were analyzed using the human pro-inflammatory II (4-plex) MSD assay measuring IL-1b, IL-6, IL-8 and TNFα. […] Cell death was measured using a LDH assay (CytoTox-Fluor™ Cytotoxicity Assay from Promega). Normalized cytokine levels have been analyzed on the logarithmic scale due to their skewed distribution. […] Contrasts of interest were then calculated using linear combinations of parameter estimates.

[3] = tested on: primary human monocytes; experiment: Cytokine production by primary monocytes from HD patients and controls; format: cell-based; set-up: Levels of IL-1, IL-6, IL-8 and TNFα: dose or concentration left out as unconfirmed
Method: as §1

[4] = tested on: primary astrocytes; experiment: IL-6 release from primary astrocytes of wild type and YAC128 mice (ELISA); format: cell-based, mouse; conditions: CSE-stimulated wild type and YAC128 astrocytes
Method: Whole brains were obtained from post-natal 1 to 3 day old wild type and YAC128 mouse pups on the FVB/N strain background and placed in Hanks Balanced Salt Solution (HBSS; Invitrogen) on ice. Meninges were removed and the remaining brain tissue was placed into growth medium (DMEM [Invitrogen], 10% FBS [PAA], 1% L-glutamine [Invitrogen], 1% penicillin/streptomycin [Invitrogen]), and homogenized using a 5 ml pipette. Cells of each brain were pelleted, re-suspended in growth medium and transferred into a T150 flask, cultured at 37° C. with 5% CO2. Growth medium was replaced after 24 hr and then every 7 days. After 18 to 21 days in culture, loosely attached microglia were harvested and seeded at 1.4×10^5 cells/ml with pre-incubated conditioned media into 96-well PRIMARIA™ tissue culture plates (BD Falcon). Adherent astrocytes were plated at 1.4×10^5 cells/ml in 10% FBS media for 24 hr in 96-well PRIMARIA™ tissue culture plates. After the initial isolation microglia and astrocytes were seeded at a density of 1.4×10^5 cells/ml into 96-well PRIMARIA™ tissue culture plates. […] Cells were lysed and total protein levels were determined using the microBCA kit (Thermo Scientific). Supernatants were analyzed using mouse IL-6 ELISA (e-Biocience) and IL-6 levels were normalized to total protein levels.

| Structure (SMILES) | Acetylation of α-tubulin (lysine K40) [1] | Toxic effect on viability of primary human monocytes [2] | Levels of IL-1, IL-6, IL-8 and TNFα ([3]; HD patient cells) | IL-1, IL-6, IL-8 and TNFα production ([3]; monocytes from HD patients and normal subjects, LPS and IFN-g stimulation, different doses) | IL-6 release [4] |
| --- | --- | --- | --- | --- | --- |
| O=[N+]([O-])c1ccc(Sc2nnc(COc3ccccc3)n2-c2ccccc2)c2ncccc12 [MIND4, 5-nitro-8-{[5-(phenoxymethyl)-4-phenyl-4H-1,2,4-triazol-3-yl]thio}quinoline] | dose dependent increase in acetylation of α-tubulin | – | – | – | – |
| O=[N+]([O-])c1ccc(Sc2nnc(COc3ccccc3)n2-c2ccccc2)nc1 [MIND4-17] | – | Neither vehicle (DMSO) or MIND4-17 had a toxic effect | significant decrease in the levels of all four cytokines | reduced IL-1, IL-6, IL-8, and TNFα production | dose-response reduction of IL-6 release |
